Results on three compounds are retold here after US20020035139A1, “COX-2 inhibitors and the prevention of the side effects of radiation therapy” (priority 2000, published 2002).

The conditions of test [1]: cited from earlier work.
A further test concerns PC-3 cells. To be noted: cited from earlier work.
A short description of test [2]: clinical observations during pelvic radiation for prostate carcinoma. The format is in vivo, patients. The text has this:
The present invention originated with observations made during pelvic radiation for prostate carcinoma.

Where [3] appears, read: PC-3 cells irradiated in the presence or absence of the inhibitor.

`NCCCNCCSP(=O)(O)O` [Ethiol]: the “dry mouth following radiation treatment” value in test [1] (head and neck cancer) was “decrease the dry mouth”. Also, the acute mucosal effects entry in test [1] (radiotherapy) is “does not limit acute mucosal effects”.
With `CS(=O)(=O)Nc1ccc([N+](=O)[O-])cc1OC1CCCCC1` [NS-398], the “prostaglandin (PGE(2)) level in irradiated cells” value in the test with PC-3 cells (PC-3 cells irradiated in the presence of the inhibitor) is given as “reduced PGE(2) levels”. Moreover, in the test with PC-3 cells (setting [3]), the apoptosis result is reported as “no differences” and the cell cycle distribution entry is “no differences”.
For `CS(=O)(=O)c1ccc(C2=C(c3ccccc3)C(=O)OC2)cc1` [Vioxx, rofecoxib], the “fatigue associated with radiotherapy” value in test [2] is reported as “decrease”. Moreover, the “acute mucosal effects of radiation” value in test [2] (urinary and gastrointestinal tracts, during radiotherapy) is “decrease the acute mucosal effects of radiation”.
